Experimental data as given in paper PMC12947280, “An Antifungal with a Novel Mechanism of Action Discovered via Resistance Gene-Guided Genome Mining” (ACS Central Science, 2026).

Biological target: A. fumigatus ALS (Aspergillus fumigatus, UniProt Q4WXQ3)
Test: ALS biochemical assay (AfALS)
Procedure: ALS biochemical assay (AfALS)
Aspergillus fumigatus acetohydroxyacid synthase (AfILV2) lacking the N-terminal mitochondrial-targeting sequence (amino acids 112-752) was overproduced and isolated from E. coli as an N-terminally His6-tagged protein. Assays (50 µL final volume) contained 200 nM His6-AfALS, 8 mM pyruvate, 1 mM thiamine pyrophosphate, and 10 µM flavin adenine dinucleotide, 10 mM MgCl2, 1 mM DTT, 1% DMSO (± inhibitor) in 200 mM KH2PO4 buffer at pH
7.5. Following a 30 min pre-incubation of the enzyme and inhibitor in the reaction mixture at room temperature, reactions were initiated with the addition of pyruvate. AfALS assays were carried out at 30 °C for 120 min. The reaction was quenched with the addition of 5 µL of 10% H2SO4 (v/v in deionized water). Reactions were incubated at 60 °C at incubating microplate shaker for 15 min to convert the product of the ALS reaction, acetolactate, to acetoin.
Subsequently, the concentration of acetoin was determined by the addition of 7.5 µL 6 M NaOH, 25 µL 0.5% creatine (w/v in deionized water), and 25 µL 4% 1-naphthol (w/v in 2.5 M NaOH).
This mixture was incubated at 60 °C in an incubating microplate shaker for 15 min. 40 µL of this reaction mixture was transferred to a half area UV-star 96-well plate (Grenier) and the absorbance at 525 nm was measured on a Spark multimode plate reader (Tecan). The percent inhibition was calculated by the comparison of the signal to DMSO (0% inhibition) and no enzyme (100% inhibition) controls. IC50 values were calculated from the dose response curves using Prism 9 (four parameter, variable slope). […]
(amino acids 58-687) was codon optimized for expression in E. coli and synthesized by […]

Chain of A. fumigatus ALS (Q4WXQ3 entry or part of it): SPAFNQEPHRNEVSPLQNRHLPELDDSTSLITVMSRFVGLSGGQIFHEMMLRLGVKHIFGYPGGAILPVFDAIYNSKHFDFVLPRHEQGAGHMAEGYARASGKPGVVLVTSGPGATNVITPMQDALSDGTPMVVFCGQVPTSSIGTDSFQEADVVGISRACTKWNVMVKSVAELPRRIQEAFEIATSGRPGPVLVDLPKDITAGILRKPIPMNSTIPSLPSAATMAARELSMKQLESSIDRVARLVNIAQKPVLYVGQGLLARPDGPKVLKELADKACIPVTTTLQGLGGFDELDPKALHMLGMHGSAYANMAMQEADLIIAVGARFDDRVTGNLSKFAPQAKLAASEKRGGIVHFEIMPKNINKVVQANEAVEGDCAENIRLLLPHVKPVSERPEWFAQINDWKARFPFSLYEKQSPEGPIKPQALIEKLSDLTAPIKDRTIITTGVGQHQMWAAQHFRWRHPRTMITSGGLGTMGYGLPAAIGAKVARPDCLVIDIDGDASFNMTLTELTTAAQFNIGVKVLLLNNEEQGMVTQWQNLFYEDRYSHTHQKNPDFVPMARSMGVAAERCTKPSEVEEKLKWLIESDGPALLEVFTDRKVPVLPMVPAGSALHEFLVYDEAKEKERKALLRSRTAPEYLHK

CCCC1C(C)=CC2CC=CC3(C)C2C1C(=O)C31C(=O)NC(CCCO)C1=O (stereo not shown) [compound 1]
IC50: 49 ± 8 nM
